Source: patent US20170224852A1, “BENZAZEPIN-1-OL-DERIVED PET LIGANDS WITH HIGH IN VIVO NMDA SPECIFICITY” (ETH ZURICH, priority 2016, published 2017)

Tests used:
GluN1/GluN2B NTD = target: T1, GluN1/GluN2B NTD (Rattus norvegicus, UniProt P35439+Q00960); assay: In vitro autoradiography of [11C]NB1 on rat brain slices; assay type: binding; conditions: for blocking of [11C]NB1 binding to rat brain slices: 10 μM competitor with 5.4 nM [11C]NB1
T1 construct: horizontal rat brain slices (20 μm) of a male Wistar rat; from tissue; host or cells: rat brain slices (male Wistar rat)
T1 sequence (Q00960 27-1482, other chains not shown): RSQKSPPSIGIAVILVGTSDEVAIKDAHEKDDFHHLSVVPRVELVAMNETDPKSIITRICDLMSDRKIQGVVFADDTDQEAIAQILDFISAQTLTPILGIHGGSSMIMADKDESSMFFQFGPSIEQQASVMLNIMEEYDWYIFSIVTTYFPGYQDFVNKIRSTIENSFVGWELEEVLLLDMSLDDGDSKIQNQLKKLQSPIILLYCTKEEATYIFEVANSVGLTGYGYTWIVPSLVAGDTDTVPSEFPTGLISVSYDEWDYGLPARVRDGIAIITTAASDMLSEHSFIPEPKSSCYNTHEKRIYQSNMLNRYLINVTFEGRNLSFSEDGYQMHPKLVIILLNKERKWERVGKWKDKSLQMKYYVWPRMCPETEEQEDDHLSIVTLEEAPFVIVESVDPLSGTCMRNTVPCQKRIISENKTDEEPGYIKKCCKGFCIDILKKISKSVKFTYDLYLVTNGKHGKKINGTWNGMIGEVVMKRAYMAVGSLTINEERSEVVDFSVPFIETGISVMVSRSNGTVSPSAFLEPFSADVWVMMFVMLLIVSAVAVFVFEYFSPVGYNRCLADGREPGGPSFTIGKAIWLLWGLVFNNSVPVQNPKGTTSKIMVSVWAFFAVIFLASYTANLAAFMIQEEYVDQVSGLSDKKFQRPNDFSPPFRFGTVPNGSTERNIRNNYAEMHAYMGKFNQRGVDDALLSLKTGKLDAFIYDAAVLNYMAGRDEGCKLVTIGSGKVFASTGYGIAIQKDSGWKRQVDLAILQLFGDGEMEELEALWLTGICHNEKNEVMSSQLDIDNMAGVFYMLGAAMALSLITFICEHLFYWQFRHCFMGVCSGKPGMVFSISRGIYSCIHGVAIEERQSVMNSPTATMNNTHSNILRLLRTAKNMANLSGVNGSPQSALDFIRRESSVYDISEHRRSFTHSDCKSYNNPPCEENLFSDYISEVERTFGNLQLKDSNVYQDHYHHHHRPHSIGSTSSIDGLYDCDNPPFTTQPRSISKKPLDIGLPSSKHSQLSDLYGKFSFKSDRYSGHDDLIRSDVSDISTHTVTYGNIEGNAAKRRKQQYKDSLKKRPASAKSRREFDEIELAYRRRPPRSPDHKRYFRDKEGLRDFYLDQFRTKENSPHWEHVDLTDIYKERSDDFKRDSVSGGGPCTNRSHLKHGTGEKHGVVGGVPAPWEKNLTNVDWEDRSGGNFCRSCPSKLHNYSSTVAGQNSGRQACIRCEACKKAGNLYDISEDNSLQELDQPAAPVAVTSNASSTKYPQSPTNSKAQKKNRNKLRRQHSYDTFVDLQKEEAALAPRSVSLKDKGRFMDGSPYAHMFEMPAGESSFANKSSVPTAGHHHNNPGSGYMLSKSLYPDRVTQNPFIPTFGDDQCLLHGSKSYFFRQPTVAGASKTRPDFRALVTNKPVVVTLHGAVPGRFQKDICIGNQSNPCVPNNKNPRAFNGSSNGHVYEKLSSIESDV
Method: After incubation, the slices were washed with HEPES/BSA for 8 min and twice with HEPES buffer for 3 min followed by two 5-second rinses with water. The dried slices were exposed for 20 min to a phosphorimager plate, read in a phosphorimager BAS5000 (Fuji, Tokyo, Japan) and analyzed with the software AIDA v. 4.5 (Raytest Isotopenmessgerate GmbH, Germany).

NMDA-rich brain regions [1] = target: T2, NMDA-rich brain regions (Rattus norvegicus, UniProt P35439+Q00960); assay: PET scans of rat brain with [11C]WMS1405; assay type: in vivo, Wistar rats; conditions: for accumulation in rat brain (PET): i.v. tail vein, 0 to 60 min p.i., baseline
T2 construct: from tissue; host or cells: brain of living Wistar rats (in vivo PET)
T2 sequence (Q00960 27-1482, other chains not shown): as above
Method: (§1) Wistar rats (331-353 g) were under isoflurane anaesthesia (2.5-5% in oxygen/air 1/1) for all procedures and temperature and respiration were controlled with warm air and by adjusting the isoflurane dosage. A dynamic PET scan was started with a calibrated VISTA eXplore/Super Argus PET/CT scanner (Sedecal, Madrid, Sprain; axial field of view 4.8 cm) and at time zero, 32-52 MBq (0.44-0.78 nmol/kg, 250-300 μL) [^11C]NB1 were injected via a tail vein.

NMDA-rich brain regions [2] = target: T2, NMDA-rich brain regions; assay: PET scans of rat brain with [18F]WMS1410; assay type: in vivo, Wister rat
Method: as §1
Similar PET experimental procedure as mentioned above for [^11C]WMS1405 was applied for imaging [^18F]WMS1410 with Wister rat.

[3] = test system: GluN2B(C,D)-containing NMDA receptors; assay: PET receptor occupancy after eliprodil administration at various doses; assay type: in vivo, rat
[4] = Garrigou-Cadenne et al. 1995; cited from earlier work
signal receptor [5] = target: T3, signal receptor (Rattus norvegicus, UniProt Q9R0C9); assay: In vitro displacement of [3H](+)pentazocine from rat brain membranes; assay type: binding; set-up: from tissue; host or cells: rat brain membranes
T3 sequence (Q9R0C9 whole entry): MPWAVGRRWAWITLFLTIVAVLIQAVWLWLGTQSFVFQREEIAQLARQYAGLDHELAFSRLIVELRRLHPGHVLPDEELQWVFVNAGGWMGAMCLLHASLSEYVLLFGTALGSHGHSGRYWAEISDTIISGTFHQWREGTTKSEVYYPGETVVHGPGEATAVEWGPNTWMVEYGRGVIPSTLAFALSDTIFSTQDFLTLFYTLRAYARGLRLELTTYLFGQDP
Method: (§2) FIG. 4A. […] One out of three independent experiments. Triplicate incubations with standard deviations. Solid line, fit IC50 function. Upper broken line, binding of 2.9 nM [^3H](+)pentazocine alone. […] Baseline and blockade (circles) as in FIGS. 2B and 2C. Squares, co-injection of 2.5 mg/kg (+)-pentazocine.
In vitro binding study with [^3H](+)pentazocine, a ligand for signal receptor.

signal receptor [6] = conditions: read-out: Kd at signal receptor; Lever et al., Synapse 2006; cited from earlier work
signal receptor [7] = target: T3, signal receptor; conditions: co-injection; (+)-pentazocine 2.5 mg/kg, haloperidol 0.13 mg/kg
Method: as §2

With `OC(CN1CCC(Cc2ccc(F)cc2)CC1)c1ccc(Cl)cc1` (stereo not shown) [eliprodil] as the molecule, how does the “blocking of [11C]NB1 binding to rat brain slices” value (GluN1/GluN2B NTD) read?
The value was “blocked”.

What about the “blockade and displacement of [11C]WMS1405 in rat brain (PET)” value (NMDA-rich brain regions [1]; eliprodil 1 mg/kg, displacement 20 min after tracer injection) of the same molecule?
Its value is “blocked and displaced”.

And the “blockade of [18F]WMS1410 in rat brain (PET)” value (NMDA-rich brain regions [2]; eliprodil 1 mg/kg co-injection)?
Its value is “blocked”.

What about the receptor occupancy ([3]; at 70 μg/kg) of the same molecule?
The receptor occupancy was 99%.

What about the “dose for 50% receptor occupancy” value ([3]; brain stem (GluN2B-poor but GluN2D-rich)) of the same molecule?
The value was 7.7 nmol/kg.

What about the “dose for 50% receptor occupancy” value ([3]; midbrain (GluN2B-poor but GluN2D-rich)) of the same molecule?
Its value is 6.2 nmol/kg.

And the brain/plasma ratio [4]?
The brain/plasma ratio was “about 20”.

With `OC1CN(CCCCc2ccccc2)CCc2cc(OCC[18F])ccc21` (stereo not shown) [[^18F]WMS1410] as the molecule, how does the “accumulation in rat brain (PET)” value (NMDA-rich brain regions [2]; baseline) read?
The value was “accumulates in NMDA-rich brain regions”.

Which Ki (signal receptor [5]; 2.9 nM [3H](+)pentazocine, rat brain membranes) does the source give for `COc1ccc2c(c1)CCN(CCCCc1ccccc1)CC2O` (stereo not shown) [WMS1405] here?
Its Ki is 1000 to 10000 nM.

And the “competition for the binding of (+)pentazocine to signal receptor” value (signal receptor [5]; in vitro)?
The value was “does not compete”.

With `CC(C)=CCN1CC[C@]2(C)c3cc(O)ccc3C[C@H]1[C@H]2C` [[^3H](+)pentazocine] as the molecule, how does the Kd (signal receptor [6]) read?
Its Kd is 1.6 nM.

With `C[C@H](NC(c1cccc2[nH]c(=O)c(=O)[nH]c12)P(=O)(O)O)c1ccc(Br)cc1` (stereo partly shown) [AAM077] as the molecule, how does the “blocking of [11C]NB1 binding to rat brain slices” value (GluN1/GluN2B NTD) read?
Its value is “not”.

Which “reduction of [11C]WMS1405 binding in vivo” value (signal receptor [7]) does the source give for `CC(C)=CCN1CCC2(C)c3cc(O)ccc3CC1C2C` (stereo not shown) [pentazocine] here?
Its value is “reduced [^11C]WMS1405 binding to similar levels as under blocking conditions with eliprodil”.

With `[11CH3]Oc1ccc2c(c1)CCN(CCCCc1ccccc1)CC2O` (single isomer, unassigned; stereoisomer b) [Stereoisomer B(+)] as the molecule, how does the “accumulation in rat brain (PET)” value (NMDA-rich brain regions [1]) read?
Its value is “accumulates more than the racemate”.

Which “binding to rat brain slices by in vitro autoradiography” value (GluN1/GluN2B NTD; 5.4 nM tracer, 30 min, room temperature, baseline) does the source give for `[11CH3]Oc1ccc2c(c1)CCN(CCCCc1ccccc1)CC2O` (stereo not shown) [[^11C]WMS1405] here?
The value was “high binding in most brain regions”.

And the “accumulation in rat brain (PET)” value (NMDA-rich brain regions [1])?
Its value is “accumulates in NMDA-rich brain regions”.
